In ChEMBL document CHEMBL5303573, “Mapping human microbiome drug metabolism by gut bacteria and their genes” (Nature, 2019):

Key:
[1] = The drug is tested on Bifidobacterium ruminantium strain: fecal isolate for biotransformation. The drug concentrations were measured before and after a 12-h incubation by liquid-chromatography-coupled mass spectrometry (LC–MS); conditions: 2 µM
[2] = The drug is tested on Blautia luti strain: DSM14534 for biotransformation. The drug concentrations were measured before and after a 12-h incubation by liquid-chromatography-coupled mass spectrometry (LC–MS); type: ADME; set-up: dose 2 uM, timepoint 0 vs 12 hours; conditions: 2 µM
[3] = The drug is tested on Collinsella intestinalis strain: DSM13280 for biotransformation. The drug concentrations were measured before and after a 12-h incubation by liquid-chromatography-coupled mass spectrometry (LC–MS); conditions: 2 µM
[4] = The drug is tested on Anaerotruncus colihominis strain: DSM17241 for biotransformation. The drug concentrations were measured before and after a 12-h incubation by liquid-chromatography-coupled mass spectrometry (LC–MS); conditions: 2 µM
[5] = The drug is tested on Providencia stuartii strain: ATCC25827 for biotransformation. The drug concentrations were measured before and after a 12-h incubation by liquid-chromatography-coupled mass spectrometry (LC–MS); conditions: 2 µM
[6] = The drug is tested on Enterococcus faecalis strain: V583 for biotransformation. The drug concentrations were measured before and after a 12-h incubation by liquid-chromatography-coupled mass spectrometry (LC–MS); conditions: 2 µM
[7] = The drug is tested on Eubacterium rectale strain: ATCC33656 for biotransformation. The drug concentrations were measured before and after a 12-h incubation by liquid-chromatography-coupled mass spectrometry (LC–MS); conditions: agathobacter rectalis, 2 µM
[8] = bacteroides thetaiotaomicron, 12 h, 2 µM
Description: The drug is tested on Bacteroides thetaiotaomicron strain: VPI-5482 for biotransformation. The drug concentrations were measured before and after a 12-h incubation by liquid-chromatography-coupled mass spectrometry (LC–MS)

[9] = anaerostipes sp., 12 h, 2 µM
Description: The drug is tested on Anaerostipes sp. strain: fecal isolate for biotransformation. The drug concentrations were measured before and after a 12-h incubation by liquid-chromatography-coupled mass spectrometry (LC–MS)

[10] = The drug is tested on Clostridium scindens strain: ATCC35704 for biotransformation. The drug concentrations were measured before and after a 12-h incubation by liquid-chromatography-coupled mass spectrometry (LC–MS); conditions: 2 µM
[11] = The drug is tested on Parabacteroides merdae strain: ATCC43184 for biotransformation. The drug concentrations were measured before and after a 12-h incubation by liquid-chromatography-coupled mass spectrometry (LC–MS); conditions: 2 µM
[12] = The drug is tested on Bacteroides dorei strain: DSM17855 for biotransformation. The drug concentrations were measured before and after a 12-h incubation by liquid-chromatography-coupled mass spectrometry (LC–MS); conditions: phocaeicola dorei, 2 µM
[13] = The drug is tested on Blautia hansenii strain: DSM20583 for biotransformation. The drug concentrations were measured before and after a 12-h incubation by liquid-chromatography-coupled mass spectrometry (LC–MS); conditions: 2 µM
[14] = The drug is tested on Bacteroides uniformis strain: ATCC8492 for biotransformation. The drug concentrations were measured before and after a 12-h incubation by liquid-chromatography-coupled mass spectrometry (LC–MS); conditions: 2 µM
[15] = The drug is tested on Bifidobacterium breve strain: DSM20213 for biotransformation. The drug concentrations were measured before and after a 12-h incubation by liquid-chromatography-coupled mass spectrometry (LC–MS); conditions: 2 µM
[16] = The drug is tested on Collinsella aerofaciens strain: ATCC25986 for biotransformation. The drug concentrations were measured before and after a 12-h incubation by liquid-chromatography-coupled mass spectrometry (LC–MS); conditions: 2 µM
[17] = The drug is tested on Bifidobacterium longum subsp. Infantis strain: CCUG52486 for biotransformation. The drug concentrations were measured before and after a 12-h incubation by liquid-chromatography-coupled mass spectrometry (LC–MS); conditions: 2 µM
[18] = The drug is tested on Bacteroides fragilis strain: HMW615 for biotransformation. The drug concentrations were measured before and after a 12-h incubation by liquid-chromatography-coupled mass spectrometry (LC–MS); conditions: 2 µM
[19] = The drug is tested on Bacteroides xylanisolvens strain: DSM18836 for biotransformation. The drug concentrations were measured before and after a 12-h incubation by liquid-chromatography-coupled mass spectrometry (LC–MS); conditions: 2 µM

Compound | Bacterial Biotransformation [1] | Bacterial Biotransformation [2] | Bacterial Biotransformation [3] | Bacterial Biotransformation [4] | Bacterial Biotransformation [5] | Bacterial Biotransformation [6] | Bacterial Biotransformation [7] | Bacterial Biotransformation [8] | Bacterial Biotransformation [9] | Bacterial Biotransformation [10] | Bacterial Biotransformation [11] | Bacterial Biotransformation [12] | Bacterial Biotransformation [13] | Bacterial Biotransformation [14] | Bacterial Biotransformation [15] | Bacterial Biotransformation [16] | Bacterial Biotransformation [17] | Bacterial Biotransformation [18] | Bacterial Biotransformation [19]
CN1CCC(OC(c2ccccc2)c2ccccc2)CC1 | Compound metabolized | Compound NOT metabolized | Compound NOT metabolized | Compound NOT metabolized | Compound NOT metabolized | Compound NOT metabolized | Compound NOT metabolized | Compound NOT metabolized | Compound NOT metabolized | Compound NOT metabolized | Compound NOT metabolized | Compound NOT metabolized | Compound NOT metabolized | Compound NOT metabolized | Compound NOT metabolized | Compound NOT metabolized | Compound NOT metabolized |  | 
CC1OC(OC2C(O)CC(OC3C(O)CC(OC4CCC5(C)C(CCC6C5CCC5(C)C(C7=CC(=O)OC7)CCC65O)C4)OC3C)OC2C)CC(O)C1O (centres undefined) |  | Compound NOT metabolized | Compound NOT metabolized |  | Compound NOT metabolized | Compound NOT metabolized | Compound NOT metabolized | Compound metabolized | Compound NOT metabolized | Compound metabolized | Compound metabolized | Compound metabolized | Compound metabolized | Compound metabolized | Compound NOT metabolized | Compound NOT metabolized | Compound NOT metabolized | Compound metabolized | Compound metabolized
Br.COc1ccc2c(c1)[C@]13CCCC[C@@H]1[C@H](C2)N(C)CC3.O [DEXTROMETHORPHAN HYDROBROMIDE] | Compound NOT metabolized | Compound NOT metabolized | Compound NOT metabolized | Compound NOT metabolized | Compound NOT metabolized | Compound NOT metabolized | Compound NOT metabolized | Compound NOT metabolized | Compound NOT metabolized | Compound NOT metabolized | Compound NOT metabolized | Compound NOT metabolized | Compound NOT metabolized | Compound NOT metabolized | Compound NOT metabolized | Compound NOT metabolized | Compound NOT metabolized |  | 
OCCN(CCO)c1nc(N2CCCCC2)c2nc(N(CCO)CCO)nc(N3CCCCC3)c2n1 [DIPYRIDAMOLE] |  | Compound NOT metabolized | Compound NOT metabolized | Compound NOT metabolized | Compound NOT metabolized | Compound NOT metabolized | Compound NOT metabolized | Compound NOT metabolized | Compound NOT metabolized | Compound NOT metabolized | Compound metabolized | Compound metabolized | Compound metabolized |  | Compound NOT metabolized | Compound NOT metabolized | Compound NOT metabolized | Compound NOT metabolized | 
CNCC[C@H](Oc1cccc2ccccc12)c1cccs1 [DULOXETINE] | Compound metabolized | Compound NOT metabolized | Compound NOT metabolized | Compound NOT metabolized |  | Compound NOT metabolized | Compound NOT metabolized | Compound NOT metabolized | Compound NOT metabolized | Compound NOT metabolized | Compound metabolized | Compound metabolized | Compound metabolized | Compound metabolized | Compound NOT metabolized | Compound metabolized | Compound NOT metabolized | Compound NOT metabolized | Compound metabolized
CC1Cc2ccccc2N1NC(=O)c1ccc(Cl)c(S(N)(=O)=O)c1 (centres undefined) [INDAPAMIDE] | Compound NOT metabolized | Compound NOT metabolized | Compound NOT metabolized |  |  | Compound NOT metabolized | Compound NOT metabolized | Compound NOT metabolized | Compound NOT metabolized | Compound NOT metabolized | Compound NOT metabolized | Compound NOT metabolized | Compound NOT metabolized | Compound NOT metabolized | Compound NOT metabolized |  | Compound NOT metabolized | Compound NOT metabolized | Compound NOT metabolized
COC(=O)C1=C(C)NC(C)=C(C(=O)OC(C)C)C1c1cccc2nonc12 (centres undefined) [ISRADIPINE] | Compound NOT metabolized | Compound NOT metabolized | Compound NOT metabolized | Compound NOT metabolized | Compound NOT metabolized | Compound NOT metabolized |  | Compound NOT metabolized | Compound NOT metabolized | Compound NOT metabolized | Compound NOT metabolized | Compound NOT metabolized | Compound NOT metabolized | Compound NOT metabolized | Compound NOT metabolized | Compound NOT metabolized | Compound NOT metabolized | Compound NOT metabolized | Compound NOT metabolized
CN1CCC(=C2c3ccccc3CC(=O)c3sccc32)CC1.O=C(O)/C=C/C(=O)O [KETOTIFEN FUMARATE] | Compound NOT metabolized | Compound NOT metabolized | Compound NOT metabolized | Compound NOT metabolized | Compound NOT metabolized | Compound NOT metabolized | Compound NOT metabolized | Compound NOT metabolized | Compound NOT metabolized | Compound NOT metabolized | Compound NOT metabolized | Compound NOT metabolized | Compound NOT metabolized | Compound NOT metabolized | Compound NOT metabolized | Compound NOT metabolized | Compound NOT metabolized |  | Compound NOT metabolized
CC(C)[C@H]1CC[C@H](C(=O)N[C@H](Cc2ccccc2)C(=O)O)CC1 [NATEGLINIDE] | Compound NOT metabolized |  | Compound NOT metabolized | Compound NOT metabolized | Compound NOT metabolized | Compound NOT metabolized | Compound NOT metabolized | Compound NOT metabolized | Compound NOT metabolized | Compound NOT metabolized | Compound NOT metabolized |  | Compound NOT metabolized | Compound metabolized | Compound NOT metabolized | Compound NOT metabolized | Compound metabolized | Compound metabolized | Compound NOT metabolized
